In patent publication US9133167B2, “Antibacterial quinoline derivatives” (JANSSEN PHARMACEUTICA NV, priority 2012, dated 2015):
Converted amounts (≈) assume the structure as drawn.

Each compound was assayed on Staphylococcus aureus (ATCC29213) (assay: Microtitre plate assay, IC90 for bacterial growth, Staphylococcus aureus strain). Conditions: 90% inhibitory concentration for bacterial growth, 24 hours at 37° C.
Format: cell-based
Experimental: D.2. In-Vitro Method for Testing Compounds for Anti-Bacterial Activity Against a Non-Mycobacterial Strain
Preparation of Bacterial Suspensions for Susceptibility Testing:
The bacteria used in this study were grown overnight in flasks containing 100 ml Mueller-Hinton Broth (Becton Dickinson—cat. no. 275730) in sterile de-ionized water, with shaking, at 37° C. Stocks (0.5 ml/tube) were stored at −70° C. until use. Bacteria titrations were performed in microtiter plates to detect the TCID50, in which TCID50 represents the dilution that gives rise to bacterial growth in 50% of inoculated cultures. In general, an inoculum level of approximately 100 TCID50 was used for susceptibility testing.
Anti Bacterial Susceptibility Testing: IC90 Determination
Flat-bottom, sterile 96-well plastic microtiter plates were filled with 180 μl of sterile deionized water, supplemented with 0.25% BSA. Subsequently, stock solutions (7.8× final test concentration) of compounds were added in 45 μl volumes in column 2 Serial five-fold dilutions (45 μl in 180 μl) were made directly in the microtiter plates from column 2 to reach column 11. Untreated control samples with (column 1) and without (column 12) inoculum were included in each microtiter plate. Depending on the bacteria type, approximately 10 to 60 CFU per well of bacteria inoculum (100 TCID50), in a volume of 100 μl in 2.8× Mueller-Hinton broth medium, was added to the rows A to H, except column 12. The same volume of broth medium without inoculum was added to column 12 in row A to H. The cultures were incubated at 37° C. for 24 hours under a normal atmosphere (incubator with open air valve and continuous ventilation). At the end of incubation, one day after inoculation, the bacterial growth was quantitated fluorometrically. Therefore resazurin (0.6 mg/ml) was added in a volume of 20 μl to all wells 3 hours after inoculation, and the plates were re-incubated overnight. A change in colour from blue to pink indicated the growth of bacteria. The fluorescence was read in a computer-controlled fluorometer (Cytofluor Biosearch) at an excitation wavelength of 530 nm and an emission wavelength of 590 nm. The % growth inhibition achieved by the compounds was calculated according to standard methods. The IC90 (expressed in μg/ml) was defined as the 90% inhibitory concentration for bacterial growth. The results are shown in Table 7 for an assay using a Staphylococcus aureus strain.

| IC90 (μg/ml) STA B29213 [µg/mL] | SMILES |
| --- | --- |
| 15.62 | COc1nc2ccc(Br)cc2cc1C(c1cccc(Cl)c1)C1(O)CCNCC1.O=C(O)/C=C/C(=O)O (racemic) [Compound 98] |
| 10.83 | COc1nc2ccc(-c3cccnc3)cc2cc1C(c1ccc(Cl)cc1)C1(O)CCNCC1.O=C(O)/C=C/C(=O)O (racemic) [Compound 93] |
| 14.49 | COc1nc2ccc(Br)cc2cc1C(c1ccc(Cl)cc1)C1(O)CCN(Cc2cccc(C#N)c2)CC1.O=C(O)/C=C/C(=O)O (racemic) [Compound 105] |
| 17.86 | COc1nc2ccc(Br)cc2cc1C(c1ccc(Cl)cc1)C1(O)CCN(CCc2ccccc2)CC1.O=C(O)/C=C/C(=O)O (stereo not drawn) [Compound 47] |
| >27.85 | COc1nc2ccc(Br)cc2cc1C(c1ccccc1)C1(O)CCN(C)CC1 (stereo not drawn) [Compound 28] |
| 15.22 | COc1nc2ccc(Br)cc2cc1C(c1ccccc1Cl)C1(O)CCNCC1.O=C(O)/C=C/C(=O)O (racemic) [Compound 95] |
| >42.92 | COc1nc2ccc(-c3ccccc3)cc2cc1C(c1ccc(Cl)cc1)C1(O)CCN(Cc2ccccc2)CC1.O=C(O)/C=C/C(=O)O (racemic) [Compound 51] |
| >41.02 | C=Cc1ccc2nc(OC)c(C(c3ccc(Cl)cc3)C3(O)CCN(Cc4ccc(C)cc4)CC3)cc2c1.O=C(O)/C=C/C(=O)O (stereo not drawn) [Compound 73] |
| 28.25 (≈ 63.1 µM) | O=c1[nH]c2ccc(Br)cc2cc1C(c1ccc(Cl)cc1)C1(O)CCNCC1 (stereo not drawn) [Compound 79] |
| 19.77 | COc1nc2ccccc2cc1C(c1ccc(Cl)cc1)C1(O)CCN(Cc2ccccc2)CC1.O=C(O)/C=C/C(=O)O (racemic) [Compound 52] |
| >44.79 | COc1nc2ccc(Br)cc2cc1C(c1ccc(Cl)cc1)C1(O)CCN(Cc2ccccc2C)CC1.O=C(O)/C=C/C(=O)O (stereo not drawn) [Compound 63] |
| >21.99 | COc1nc2ccc(C#N)cc2cc1C(c1ccc(Cl)cc1)C1(O)CCN(Cc2ccc(C)cc2)CC1 (stereo not drawn) [Compound 76] |
| >48.13 | O=C(O)/C=C/C(=O)O.OC1(C(c2ccc(Cl)cc2)c2cc3cc(Br)ccc3nc2N2CCCCC2)CCN(Cc2ccccc2)CC1 (stereo not drawn) [Compound 87] |
| >49.51 | COc1nc2ccc(Br)cc2cc1C(c1ccc(Cl)c(C(F)(F)F)c1)C1(O)CCN(Cc2ccccc2)CC1.O=C(O)/C=C/C(=O)O (racemic) [Compound 66] |
| 34.89 | CN(C)c1nc2ccc(Br)cc2cc1C(c1ccc(Cl)cc1)C1(O)CCN(Cc2ccccc2)CC1.O=C(O)/C=C/C(=O)O (stereo not drawn) [Compound 75] |
| 33.82 | COc1nc2ccc(Br)cc2cc1C(c1ccc(F)cc1)C1(O)CCN(Cc2ccccc2)CC1.O=C(O)/C=C/C(=O)O (racemic) [Compound 72] |
| >29.62 | COc1nc2ccc(Br)cc2cc1C(c1ccccc1)C1(O)CCN(C(C)C)CC1 (stereo not drawn) [Compound 30] |
| >40.66 | COc1nc2ccc(Br)cc2cc1C(c1ccco1)C1(O)CCN(Cc2ccccc2)CC1.O=C(O)/C=C/C(=O)O (stereo not drawn) [Compound 68] |
| >29.57 | CSc1nc2ccc(C)cc2cc1C(c1ccccc1)C1(O)CCN(Cc2ccccc2)CC1 (racemic) [Compound 41] |
| 19.23 | COc1nc2ccc(Br)cc2cc1C(c1ccc(Cl)cc1)C1(O)CCNCC1.O=C(O)/C=C/C(=O)O (stereo not drawn) [Compound 45] |

| IC90 (μg/ml) STA B29213 [µg/mL] | SMILES |
| --- | --- |
| >44.39 | COc1nc2ccc(-c3ccccc3)cc2cc1C(c1ccc(Cl)cc1)C1(O)CCN(CCc2ccccc2)CC1.O=C(O)/C=C/C(=O)O (racemic) [Compound 89] |
| >35.71 | COc1nc2ccc(Br)cc2cc1C(c1ccc(Cl)c(C)c1)C1(O)CCN(Cc2ccccc2)CC1 (stereo not drawn) [Compound 48] |
| >46.15 | COc1nc2ccc(Br)cc2cc1C(c1ccc(Cl)c(Cl)c1)C1(O)CCN(Cc2ccccc2)CC1.O=C(O)/C=C/C(=O)O (stereo not drawn) [Compound 65] |
| >43.45 | COc1nc2ccc(Br)cc2cc1C(c1cc2ccccc2o1)C1(O)CCN(Cc2ccccc2)CC1.O=C(O)/C=C/C(=O)O (stereo not drawn) [Compound 54] |
| 32.65 (≈ 63.1 µM) | COc1nc2ccc(Br)cc2cc1C(c1ccccc1)C1(O)CCN(Cc2ccccc2)CC1 (stereo not drawn) [Compound 29] |
| 13.75 (≈ 25.1 µM) | COc1ccc(C(c2cc3cc(Br)ccc3nc2OC)C2(O)CCN(Cc3ccccc3)CC2)cc1 (stereo not drawn) [Compound 40] |
| 6.95 (≈ 12.6 µM) | O=c1[nH]c2ccc(Br)cc2cc1C(c1ccc(Cl)cc1)C1(O)CCN(CCc2ccccc2)CC1 (stereo not drawn) [Compound 74] |
| 13.47 (≈ 25.1 µM) | O=c1[nH]c2ccc(-c3cccnc3)cc2cc1C(c1ccc(Cl)cc1)C1(O)CCN(Cc2ccccc2)CC1 (stereo not drawn) [Compound 78] |
| 33.54 (≈ 63.1 µM) | COc1nc2ccc(Br)cc2cc1C(c1ccc(C)cc1)C1(O)CCN(Cc2ccccc2)CC1 (stereo not drawn) [Compound 39] |
| >44.98 | COc1nc2ccc(-c3ccccc3)cc2cc1C(c1ccc(Cl)cc1)C1(O)CCN(Cc2ccc(C)cc2)CC1.O=C(O)/C=C/C(=O)O (racemic) [Compound 69] |
| >43.98 | COc1nc2ccc(Br)cc2cc1C(c1ccccc1Cl)C1(O)CCN(Cc2ccccc2)CC1.O=C(O)/C=C/C(=O)O (racemic) [Compound 67] |
| >35.71 | COc1nc2ccc(Br)cc2cc1C(c1ccc(Cl)cc1)C1(O)CCN(CCc2ccccc2)CC1 (stereo not drawn) [Compound 46] |
| >33.79 | COc1nc2ccc(Br)cc2cc1C(c1ccccc1F)C1(O)CCN(Cc2ccccc2)CC1 (racemic) [Compound 83] |
| >33.54 | COc1nc2ccc(Br)cc2cc1C(c1ccccc1)C1(O)CCN(Cc2cccc(C)c2)CC1 (stereo not drawn) [Compound 38] |
| >32.65 | COc1nc2cccc(Br)c2cc1C(c1ccccc1)C1(O)CCN(Cc2ccccc2)CC1 (racemic) [Compound 44] |
| >43.09 | COc1nc2ccc(Br)cc2cc1C(c1ccc(F)c(C)c1)C1(O)CCN(Cc2ccccc2)CC1.O=C(O)/C=C/C(=O)O (stereo not drawn) [Compound 55] |
| 10.05 | COc1ccc2nc(OC)c(C(c3ccc(Cl)cc3)C3(O)CCN(Cc4ccccc4)CC3)cc2c1.O=C(O)/C=C/C(=O)O (stereo not drawn) [Compound 81] |
| >43.79 | COc1nc2ccc(-c3cccnc3)cc2cc1C(c1ccc(Cl)cc1)C1(O)CCN(Cc2ccccc2)CC1.O=C(O)/C=C/C(=O)O (racemic) [Compound 50] |
| 34.54 | COc1nc2ccc(Br)cc2cc1C(C1Oc2ccccc2O1)C1(O)CCN(Cc2ccccc2)CC1.O=C(O)/C=C/C(=O)O (stereo not drawn) [Compound 85] |

Same assay, conditions: 90% inhibitory concentration for bacterial growth, 24 hours at 37° C., read-out: IC90 (μg/ml) STA B29213

| IC90 [µg/mL] | SMILES |
| --- | --- |
| 11.3 (≈ 17.7 µM) | COc1nc2ccc(Br)cc2cc1C(c1ccc(Cl)cc1)C1(O)CCN(C2CCN(Cc3ccccc3)CC2)CC1 (stereo not drawn) [Compound 15] |
| 11.6 (≈ 25.1 µM) | COc1nc2ccc(Br)cc2cc1C(c1ccc(Cl)cc1)C1(O)CCNCC1 (stereo not drawn) [Compound 14] |
| 8.42 (≈ 15.8 µM) | COc1nc2ccc(Br)cc2cc1C(c1ccccc1)C1(O)CCN(CCc2ccccc2)CC1 (stereo not drawn) [Compound 5] |

The compounds below were run on Mycobacterium smegmatis (ATCC607) (assay: In-vitro anti-bacterial activity against strain M. smegmatis ATCC607 (Alamar Blue growth inhibition)). Conditions: 90% inhibitory concentration for bacterial growth, 48 hours at 37° C.
Format: cell-based
Experimental: D.1. In-Vitro Method for Testing Compounds for Anti-Bacterial Activity Against Strain M. Smegmatis ATCC607.
Flat-bottom, sterile 96-well plastic microtiter plates were filled with 180 μl of sterile deionized water, supplemented with 0.25% BSA. Subsequently, stock solutions (7.8× final test concentration) of compounds were added in 45 μl volumes to a series of duplicate wells in column 2 so as to allow evaluation of their effects on bacterial growth. Serial five-fold dilutions (45 μl in 180 μl) were made directly in the microtiter plates from column 2 to 11 using a customised robot system (Zymark Corp., Hopkinton, Mass.). Pipette tips were changed after every 3 dilutions to minimize pipetting errors with high hydrophobic compounds. Untreated control samples with (column 1) and without (column 12) inoculum were included in each microtiter plate. Approximately 250 CFU per well of bacteria inoculum, in a volume of 100 in 2.8× Mueller-Hinton broth medium, was added to the rows A to H, except column 12. The same volume of broth medium without inoculum was added to column 12 in row A to H. The cultures were incubated at 37° C. for 48 hours in a humidified 5% CO2 atmosphere (incubator with open air valve and continuous ventilation). At the end of incubation, two days after inoculation, the bacterial growth was quantitated fluorometrically. Therefore Alamar Blue (10×) was added to all wells in a volume of 20 and plates were incubated for another 2 hours at […]
The fluorescence was read in a computer-controlled fluorometer (Cytofluor, Biosearch) at an excitation wavelength of 530 nm and an emission wavelength of 590 nm (gain 30). The percentage growth inhibition achieved by the compounds was calculated according to standard methods and expressed as IC90 […] which defines the 90% inhibitory concentration for bacterial growth.

| IC90 (μg/ml) MSM 607 [µg/mL] | SMILES |
| --- | --- |
| 7.83 | COc1nc2ccc(Br)cc2cc1C(c1cccc(Cl)c1)C1(O)CCNCC1.O=C(O)/C=C/C(=O)O (racemic) [Compound 98] |
| 3.05 | COc1nc2ccc(-c3cccnc3)cc2cc1C(c1ccc(Cl)cc1)C1(O)CCNCC1.O=C(O)/C=C/C(=O)O (racemic) [Compound 93] |
| 14.49 | COc1nc2ccc(Br)cc2cc1C(c1ccc(Cl)cc1)C1(O)CCN(Cc2cccc(C#N)c2)CC1.O=C(O)/C=C/C(=O)O (racemic) [Compound 105] |
| 4.49 | COc1nc2ccc(Br)cc2cc1C(c1ccc(Cl)cc1)C1(O)CCN(CCc2ccccc2)CC1.O=C(O)/C=C/C(=O)O (stereo not drawn) [Compound 47] |
| 11.09 (≈ 25.1 µM) | COc1nc2ccc(Br)cc2cc1C(c1ccccc1)C1(O)CCN(C)CC1 (stereo not drawn) [Compound 28] |
| 6.06 | COc1nc2ccc(Br)cc2cc1C(c1ccccc1Cl)C1(O)CCNCC1.O=C(O)/C=C/C(=O)O (racemic) [Compound 95] |
